Laboratory results reported in publication PMC3438379 (Journal of enzyme inhibition and medicinal chemistry, 2011).
Read-outs that look alike come from different tables or passages of the source.

Legend:
[1] = system: HIV-1-infected MT-4 cells; conditions: ref [9]; cited from earlier work
[2] = Relative aqueous solubility by stepwise water dilution of DMSO solution; format: physicochemical; conditions: 50 μL DMSO solution of 5 mg mL^−1, water added in 50 μL steps
[3] = cited from earlier work
[4] = target: HIV-1 protease (Human immunodeficiency virus type 1 group M subtype B, UniProt P04585); conditions: read-out: IC50 (inhibition of HIV-1 protease), cited from earlier work

| Compound | activity against HIV-induced cytopathic effects [1] | Water solubility (dilution steps required to achieve clear solution) [2] [x] | solubility in DMSO ([3]; 25°C, ref [23]) | solubility in ethanol ([3]; 25°C, ref [23]) | Water solubility ([3]; at 25°C, ref [22]) [µg/mL] | solubility in water ([3]; room temperature, ref [22]) | IC50 ([4]; ref [18]) [µM] | IC50 ([4]; ref [19]) [µM] |
| --- | --- | --- | --- | --- | --- | --- | --- | --- |
| C=C(C)[C@@H]1CC[C@]2(C(=O)O)CC[C@]3(C)[C@H](CC[C@@H]4[C@@]5(C)CC[C@H](OC(=O)CC(C)(C)C(=O)O)C(C)(C)[C@@H]5CC[C@]43C)[C@@H]12 [3-O-(3′,3′-dimethylsuccinyl) betulinic acid] | high activity | – | – | – | – | – | – | – |
| C=C(C)[C@@H]1CC[C@]2(C(=O)O)CC[C@]3(C)[C@H](CC[C@@H]4[C@@]5(C)CC[C@H](O)C(C)(C)[C@@H]5CC[C@]43C)[C@@H]12 [compound 1, 3β-hydroxy-lup-20(29)-en-28-oic acid] | – | < 2 | 5 % (w/v) | 1 % (w/v) | 0.02 | about 0.02 μg mL^−1 | 9 | 2.5 |
| C=C(C)[C@@H]1CC[C@]2(C(=O)[O-])CC[C@]3(C)[C@H](CC[C@@H]4[C@@]5(C)CC[C@H](O)C(C)(C)[C@@H]5CC[C@]43C)[C@@H]12.C[N+](C)(C)CCO [compound 8, cholinium betulinate] | – | > 100 | – | – | – | – | – | – |
